Measurements taken from PubChem BioAssay AID1963986 (Molecular Pharmacology Branch, DTP, NCI, 2024).

Tested on: 171881-019-R-J1-PDC tumor spheroid viability
Assay: Anticancer human tumor 171881-019-R-J1-PDC patient-derived invasive breast carcinoma cell line growth inhibition [PI3K]
Conditions: spheroids with HUVEC and MSC; for IC50: curve of first compound; for viability, T/C: stronger effect = lower value
Outline: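 Multi-cell spheroids combine tumor cells with HUVEC and human MSCs, treated with targeted agents alone or with inavolisib, alpelisib, duvelisib or copanlisib. Concentrations fall in half-log steps from at or near clinical Cmax, or from 10 microM where Cmax is unknown; viability read-out.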

[1] = second compound 0.0316 µM, first compound 0.0316 µM
[2] = second compound 0.0316 µM, first compound 0.1 µM
[3] = second compound 0.0316 µM, first compound 0.316 µM
[4] = second compound 0.0316 µM, first compound 1 µM
[5] = second compound 0.0316 µM, first compound 3.16 µM
[6] = second compound 0.0316 µM, first compound 10 µM
[7] = second compound 0.1 µM, first compound 0.0316 µM
[8] = second compound 0.1 µM, first compound 0.1 µM
[9] = second compound 0.1 µM, first compound 0.316 µM
[10] = second compound 0.1 µM, first compound 1 µM
[11] = second compound 0.1 µM, first compound 3.16 µM
[12] = second compound 0.1 µM, first compound 10 µM
[13] = second compound 0.316 µM, first compound 0.0316 µM
[14] = second compound 0.316 µM, first compound 0.1 µM
[15] = second compound 0.316 µM, first compound 0.316 µM
[16] = second compound 0.316 µM, first compound 1 µM
[17] = second compound 0.316 µM, first compound 3.16 µM
[18] = second compound 0.316 µM, first compound 10 µM
[19] = second compound 1 µM, first compound 0.0316 µM
[20] = second compound 1 µM, first compound 0.1 µM
[21] = second compound 1 µM, first compound 0.316 µM
[22] = second compound 1 µM, first compound 1 µM
[23] = second compound 1 µM, first compound 3.16 µM
[24] = second compound 1 µM, first compound 10 µM
[25] = second compound 3.16 µM, first compound 0.0316 µM
[26] = second compound 3.16 µM, first compound 0.1 µM
[27] = second compound 3.16 µM, first compound 0.316 µM
[28] = second compound 3.16 µM, first compound 1 µM
[29] = second compound 3.16 µM, first compound 3.16 µM
[30] = second compound 3.16 µM, first compound 10 µM
[31] = second compound 10 µM, first compound 0.0316 µM
[32] = second compound 10 µM, first compound 0.1 µM
[33] = second compound 10 µM, first compound 0.316 µM
[34] = second compound 10 µM, first compound 1 µM
[35] = second compound 10 µM, first compound 3.16 µM
[36] = second compound 10 µM, first compound 10 µM
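Note: spheroids exposed to compound for 7 days before viability read.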
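Throughout, for viability, T/C: 100% = DMSO vehicle-treated spheroids.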

For `C=CC(=O)N1CCN(c2nc(=O)n(-c3c(C)ccnc3C(C)C)c3nc(-c4c(O)cccc4F)c(F)cc23)C(C)C1` (stereo not drawn) + Cc1nc(NC(=O)N2CCCC2C(N)=O)sc1-c1ccnc(C(C)(C)C(F)(F)F)c1, the IC50 (second compound 0.0316 µM) was 9730 nM, the IC50 (second compound 0.1 µM) was 9440 nM and the IC50 (second compound 0.316 µM) was 2350 nM. The IC50 (second compound 1 µM) was < 31.6 nM, the IC50 (second compound 3.16 µM) was < 31.6 nM and the IC50 (second compound 10 µM) was < 31.6 nM. It also gave a viability, T/C [1] of 92.6%, a viability, T/C [2] of 83.4% and a viability, T/C [3] of 98.4%. The viability, T/C [4] was 92%, the viability, T/C [5] was 79.6% and the viability, T/C [6] was 48.8%. For the same molecule, the viability, T/C [7] was 84.1%, the viability, T/C [8] was 73.2% and the viability, T/C [9] was 86.3%. It also gave a viability, T/C [10] of 87.4%, a viability, T/C [11] of 86.9% and a viability, T/C [12] of 48.2%. The viability, T/C [13] was 55%, the viability, T/C [14] was 50.9% and the viability, T/C [15] was 56.8%. The viability, T/C [16] was 60.4%, the viability, T/C [17] was 57.9% and the viability, T/C [18] was 34.7%. The viability, T/C [19] was 29.8%, the viability, T/C [20] was 32.3% and the viability, T/C [21] was 32.1%. For the same molecule, the viability, T/C [22] was 32.4%, the viability, T/C [23] was 33% and the viability, T/C [24] was 19.4%. It also gave a viability, T/C [25] of 14.7%, a viability, T/C [26] of 15.2% and a viability, T/C [27] of 14.5%. The viability, T/C [28] was 15.2%, the viability, T/C [29] was 16.8% and the viability, T/C [30] was 8.95%. The viability, T/C [31] was 3.67%, the viability, T/C [32] was 3.63% and the viability, T/C [33] was 4.33%. The viability, T/C [34] was 4.28%, the viability, T/C [35] was 4.51% and the viability, T/C [36] was 2.34%.
With `CCN1CCN(Cc2ccc(Nc3ncc(F)c(-c4cc(F)c5nc(C)n(C(C)C)c5c4)n3)nc2)CC1` + Cc1nc(NC(=O)N2CCCC2C(N)=O)sc1-c1ccnc(C(C)(C)C(F)(F)F)c1 the IC50 (second compound 0.0316 µM) was > 1000 nM, the IC50 (second compound 0.1 µM) was > 1000 nM and the IC50 (second compound 0.316 µM) was > 1000 nM. The IC50 (second compound 1 µM) was < 3.16 nM, the IC50 (second compound 3.16 µM) was < 3.16 nM and the IC50 (second compound 10 µM) was < 3.16 nM. For the same molecule, the viability, T/C (second compound 0.0316 µM, first compound 0.00316 µM) was 102%, the viability, T/C (second compound 0.0316 µM, first compound 0.01 µM) was 92.9% and the viability, T/C [1] was 98.6%. For the same molecule, the viability, T/C [2] was 103%, the viability, T/C [3] was 111% and the viability, T/C [4] was 103%. It also gave a viability, T/C (second compound 0.1 µM, first compound 0.00316 µM) of 83.9%, a viability, T/C (second compound 0.1 µM, first compound 0.01 µM) of 85.8% and a viability, T/C [7] of 91.5%. The viability, T/C [8] was 91.9%, the viability, T/C [9] was 105% and the viability, T/C [10] was 104%. For the same molecule, the viability, T/C (second compound 0.316 µM, first compound 0.00316 µM) was 59.5%, the viability, T/C (second compound 0.316 µM, first compound 0.01 µM) was 61.1% and the viability, T/C [13] was 72.2%. The viability, T/C [14] was 73.8%, the viability, T/C [15] was 80.7% and the viability, T/C [16] was 83.3%. It also gave a viability, T/C (second compound 1 µM, first compound 0.00316 µM) of 37.2%, a viability, T/C (second compound 1 µM, first compound 0.01 µM) of 38.8% and a viability, T/C [19] of 39.1%. The viability, T/C [20] was 45%, the viability, T/C [21] was 53.3% and the viability, T/C [22] was 61.5%. It also gave a viability, T/C (second compound 3.16 µM, first compound 0.00316 µM) of 15.4%, a viability, T/C (second compound 3.16 µM, first compound 0.01 µM) of 17% and a viability, T/C [25] of 19.5%. For the same molecule, the viability, T/C [26] was 21%, the viability, T/C [27] was 28.6% and the viability, T/C [28] was 42%. The viability, T/C (second compound 10 µM, first compound 0.00316 µM) was 3.79%, the viability, T/C (second compound 10 µM, first compound 0.01 µM) was 4.44% and the viability, T/C [31] was 4.59%. The viability, T/C [32] was 4.85%, the viability, T/C [33] was 8.73% and the viability, T/C [34] was 14.2%.
`Cn1ncc(Cl)c1-c1cc(C(=O)NC(CN)Cc2cccc(F)c2)sc1Cl` (stereo not drawn) + Cc1nc(NC(=O)N2CCCC2C(N)=O)sc1-c1ccnc(C(C)(C)C(F)(F)F)c1 was tested, and the IC50 (second compound 0.0316 µM) was 155 nM, the IC50 (second compound 0.1 µM) was 90.7 nM and the IC50 (second compound 0.316 µM) was 32.9 nM. For the same molecule, the IC50 (second compound 1 µM) was < 31.6 nM, the IC50 (second compound 3.16 µM) was < 31.6 nM and the IC50 (second compound 10 µM) was < 31.6 nM. It also gave a viability, T/C [1] of 77.8%, a viability, T/C [2] of 60% and a viability, T/C [3] of 34.2%. It also gave a viability, T/C [4] of 20.2%, a viability, T/C [5] of 11.4% and a viability, T/C [6] of 4.55%. For the same molecule, the viability, T/C [7] was 71.3%, the viability, T/C [8] was 47.4% and the viability, T/C [9] was 31.6%. It also gave a viability, T/C [10] of 17.6%, a viability, T/C [11] of 11.4% and a viability, T/C [12] of 4.51%. It also gave a viability, T/C [13] of 50.1%, a viability, T/C [14] of 42.2% and a viability, T/C [15] of 28.9%. The viability, T/C [16] was 16.3%, the viability, T/C [17] was 9.51% and the viability, T/C [18] was 4.96%. It also gave a viability, T/C [19] of 32.2%, a viability, T/C [20] of 29.3% and a viability, T/C [21] of 19.2%. It also gave a viability, T/C [22] of 12.7%, a viability, T/C [23] of 8.96% and a viability, T/C [24] of 3.93%. For the same molecule, the viability, T/C [25] was 13.7%, the viability, T/C [26] was 13.4% and the viability, T/C [27] was 11.3%. The viability, T/C [28] was 8.81%, the viability, T/C [29] was 6.34% and the viability, T/C [30] was 1.66%. It also gave a viability, T/C [31] of 3.8%, a viability, T/C [32] of 3.93% and a viability, T/C [33] of 3.32%. For the same molecule, the viability, T/C [34] was 2.79%, the viability, T/C [35] was 1.39% and the viability, T/C [36] was 0.18%.
For `Cn1nccc1Nc1nccc(-c2ccn(C(CO)c3ccc(Cl)c(F)c3)c(=O)c2)n1` (stereo not drawn) + Cc1nc(NC(=O)N2CCCC2C(N)=O)sc1-c1ccnc(C(C)(C)C(F)(F)F)c1, the IC50 (second compound 0.0316 µM) was 297 nM, the IC50 (second compound 0.1 µM) was 140 nM and the IC50 (second compound 0.316 µM) was 34.9 nM. For the same molecule, the IC50 (second compound 1 µM) was < 31.6 nM, the IC50 (second compound 3.16 µM) was < 31.6 nM and the IC50 (second compound 10 µM) was < 31.6 nM. The viability, T/C [1] was 89.8%, the viability, T/C [2] was 73.2% and the viability, T/C [3] was 47.2%. For the same molecule, the viability, T/C [4] was 32.1%, the viability, T/C [5] was 23.1% and the viability, T/C [6] was 18.4%. For the same molecule, the viability, T/C [7] was 81%, the viability, T/C [8] was 55.8% and the viability, T/C [9] was 36.2%. It also gave a viability, T/C [10] of 24%, a viability, T/C [11] of 18.5% and a viability, T/C [12] of 16.2%. For the same molecule, the viability, T/C [13] was 51.1%, the viability, T/C [14] was 37.8% and the viability, T/C [15] was 22.6%. It also gave a viability, T/C [16] of 14.6%, a viability, T/C [17] of 10.9% and a viability, T/C [18] of 8.35%. It also gave a viability, T/C [19] of 27.4%, a viability, T/C [20] of 20% and a viability, T/C [21] of 12.5%. For the same molecule, the viability, T/C [22] was 7.16%, the viability, T/C [23] was 5.6% and the viability, T/C [24] was 4.92%. It also gave a viability, T/C [25] of 12.3%, a viability, T/C [26] of 8.08% and a viability, T/C [27] of 4.7%. For the same molecule, the viability, T/C [28] was 3.17%, the viability, T/C [29] was 2.1% and the viability, T/C [30] was 1.72%. It also gave a viability, T/C [31] of 2.73%, a viability, T/C [32] of 2.2% and a viability, T/C [33] of 1.3%. The viability, T/C [34] was 0.88%, the viability, T/C [35] was 0.68% and the viability, T/C [36] was 0.53%.
